Experimental data reported in ChEMBL document CHEMBL1201862, “PubChem BioAssay data set” (2004).
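Results reflect a 48-hour exposure of cells in 96-well plates to compound at five concentrations. GI50: concentration for 50% inhibition of growth.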 Activity calls are given as the source filed them. No stated cut-off is given here; in the data, active = GI50 up to about 1.1 µM and inactive = higher.

Key:
Assay in all cases: NCI tumour cell line growth inhibition, 48 h
NCI-H226 = system: NCI-H226
MOLT-4 = system: MOLT-4
K562 = system: K562
A498 = system: A498
Malme-3M = system: Malme-3M
NCI-H460 = system: NCI-H460
OVCAR-4 = system: OVCAR-4
NCI-H23 = system: NCI-H23
RXF 393 = system: RXF 393
NCI/ADR-RES = system: NCI/ADR-RES
OVCAR-8 = system: OVCAR-8
HCT-15 = system: HCT-15
M14 = system: M14
SNB-75 = system: SNB-75
HCT-116 = system: HCT-116
COLO 205 = system: COLO 205
KM12 = system: KM12
RPMI-8226 = system: RPMI-8226
NCI-H522 = system: NCI-H522
SK-MEL-2 = system: SK-MEL-2

SMILES | GI50 (NCI-H226) | GI50 (MOLT-4) | GI50 (K562) | GI50 (A498) | GI50 (Malme-3M) | GI50 (NCI-H460) | GI50 (OVCAR-4) | GI50 (NCI-H23) | GI50 (RXF 393) | GI50 (NCI/ADR-RES) | GI50 (OVCAR-8) | GI50 (HCT-15) | GI50 (M14) | GI50 (SNB-75) | GI50 (HCT-116) | GI50 (COLO 205) | GI50 (KM12) | GI50 (RPMI-8226) | GI50 (NCI-H522) | GI50 (SK-MEL-2)
Fc1ccc2c3c([nH]c2c1)CCNC3 | 59.6 µM (inactive) | > 100 µM (inactive) | > 100 µM (inactive) | 20.4 µM (inactive) | > 100 µM (inactive) | > 100 µM (inactive) | > 100 µM (inactive) | > 100 µM (inactive) | > 100 µM (inactive) | > 100 µM (inactive) | > 100 µM (inactive) | > 100 µM | > 100 µM (inactive) | > 100 µM (inactive) | > 100 µM (inactive) | > 100 µM (inactive) | > 100 µM (inactive) | > 100 µM (inactive) | – | –
Oc1ccc(/N=N/c2ccc(Cl)cc2)cc1 | 17.7 µM (inactive) | 13.2 µM (inactive) | 19.6 µM (inactive) | 17.3 µM (inactive) | – | 16.9 µM (inactive) | 14.9 µM (inactive) | 16.4 µM (inactive) | 15.4 µM (inactive) | 18.1 µM (inactive) | 16.6 µM (inactive) | 14.7 µM | 10.7 µM (inactive) | 18.9 µM (inactive) | 15.9 µM (inactive) | 18.4 µM (inactive) | 13 µM (inactive) | 24.2 µM (inactive) | 11.6 µM (inactive) | 14.2 µM (inactive)
Oc1cc(Br)cc2cc(Br)cnc12 | 15.3 µM (inactive) | 2.55 µM (inactive) | 1.21 µM (inactive) | 3.4 µM (inactive) | 2.4 µM (inactive) | 1.3 µM (inactive) | 1.39 µM (inactive) | 4.95 µM (inactive) | 1.6 µM (inactive) | 2.72 µM (inactive) | 2.96 µM (inactive) | 1.13 µM | 2.4 µM (inactive) | 3.47 µM (inactive) | 2.11 µM (inactive) | 32.3 µM (inactive) | 5.38 µM (inactive) | 2.63 µM (inactive) | 2.3 µM (inactive) | –
CCOP(=O)(OCC)/C(F)=C/c1ccc(F)cc1 | – | > 100 µM (inactive) | > 100 µM (inactive) | > 100 µM (inactive) | > 100 µM (inactive) | > 100 µM (inactive) | > 100 µM (inactive) | > 100 µM (inactive) | > 100 µM (inactive) | > 100 µM (inactive) | > 100 µM (inactive) | > 100 µM | > 100 µM (inactive) | > 100 µM (inactive) | > 100 µM (inactive) | > 100 µM (inactive) | > 100 µM (inactive) | > 100 µM (inactive) | > 100 µM (inactive) | > 100 µM (inactive)
CC(=O)O[C@H]1[C@@H](OC2CCCC2(c2ccccc2)c2ccccc2)O[N+]([O-])=C[C@@]12COCc1cc3c(cc12)OCO3 (some centres not stated) | 4.79 µM (inactive) | 2.52 µM (inactive) | 2.92 µM (inactive) | 1.99 µM (inactive) | – | 7.06 µM (inactive) | 1.49 µM (inactive) | 13.2 µM (inactive) | 5.74 µM (inactive) | 3.52 µM (inactive) | 4.24 µM (inactive) | 6.37 µM | 11.2 µM (inactive) | 4.11 µM (inactive) | > 21.2 µM (inactive) | > 32.4 µM (inactive) | 4.14 µM (inactive) | – | 1.98 µM (inactive) | 4.17 µM (inactive)
CC1C(c2ccccc2)OP(=O)(OC(C#N)c2ccccc2)N1C (configuration not stated) | – | 37.8 µM (inactive) | 39.3 µM (inactive) | > 100 µM (inactive) | 89.3 µM (inactive) | > 100 µM (inactive) | – | > 100 µM (inactive) | > 100 µM (inactive) | > 100 µM (inactive) | > 100 µM (inactive) | > 100 µM | 97.7 µM (inactive) | > 100 µM (inactive) | > 100 µM (inactive) | > 100 µM (inactive) | > 100 µM (inactive) | 33.5 µM (inactive) | > 100 µM (inactive) | 48.2 µM (inactive)
O=C1CNC(=O)/C(=C/c2c[nH]c3ccccc23)N1 | > 100 µM (inactive) | > 100 µM (inactive) | > 100 µM (inactive) | > 100 µM (inactive) | > 100 µM (inactive) | > 100 µM (inactive) | > 100 µM (inactive) | > 100 µM (inactive) | > 100 µM (inactive) | > 100 µM (inactive) | > 100 µM (inactive) | > 100 µM | > 100 µM (inactive) | – | > 100 µM (inactive) | – | > 100 µM (inactive) | > 100 µM (inactive) | 85.3 µM (inactive) | > 100 µM (inactive)
COC(=O)CN1C(=O)C2(C(=O)OC)OC1(c1ccc([N+](=O)[O-])cc1)C1C(=O)N(c3ccccc3)C(=O)C12 (configuration not stated) | > 100 µM (inactive) | > 100 µM (inactive) | – | > 100 µM (inactive) | > 100 µM (inactive) | – | > 100 µM (inactive) | > 100 µM (inactive) | > 100 µM (inactive) | > 100 µM (inactive) | > 100 µM (inactive) | > 100 µM | > 100 µM (inactive) | > 100 µM (inactive) | > 100 µM (inactive) | > 100 µM (inactive) | > 100 µM (inactive) | – | > 100 µM (inactive) | > 100 µM (inactive)
CC1=NN(c2nc(N)nc(CSc3nc4n(c(=S)n3)CCN4)n2)C(C)(C)C1 | 15 µM (inactive) | > 100 µM (inactive) | > 100 µM (inactive) | 39.7 µM (inactive) | – | > 100 µM (inactive) | > 100 µM (inactive) | 47.5 µM (inactive) | 15.6 µM (inactive) | 30.1 µM (inactive) | 18.3 µM (inactive) | 32 µM | 67.9 µM (inactive) | 15.3 µM (inactive) | > 100 µM (inactive) | 38.5 µM (inactive) | > 100 µM (inactive) | > 100 µM (inactive) | – | 16.8 µM (inactive)
O=c1c2cccnc2n2n1Cc1ccccc1C2 | > 100 µM (inactive) | > 100 µM (inactive) | > 100 µM (inactive) | > 100 µM (inactive) | > 100 µM (inactive) | > 100 µM (inactive) | > 100 µM (inactive) | > 100 µM (inactive) | > 100 µM (inactive) | > 100 µM (inactive) | > 100 µM (inactive) | > 100 µM | – | > 100 µM (inactive) | > 100 µM (inactive) | – | – | > 100 µM (inactive) | > 100 µM (inactive) | –
CCOC(=O)/C(=C\NC(C)(C)C)c1nc2ccccc2[nH]1 | 22.9 µM (inactive) | – | – | 25.1 µM (inactive) | 20.6 µM (inactive) | 17.7 µM (inactive) | 24.5 µM (inactive) | 17.7 µM (inactive) | 23.5 µM (inactive) | 32 µM (inactive) | 26.1 µM (inactive) | 34.2 µM | 20.1 µM (inactive) | 23.7 µM (inactive) | 29.5 µM (inactive) | 16 µM (inactive) | 19.9 µM (inactive) | 17.2 µM (inactive) | 20.2 µM (inactive) | –
